Reference: US8877748B2, “Heterocyclic fused anthraquinone derivatives, manufacturing method and pharmaceutical composition using thereof” (National Defense Medical Center, priority 2012, dated 2014)

Tests used:
SN12C = test: NCI one-dose screening, renal cancer SN12C; type: cell-based, human; conditions: 10 μM
MALME-3M = test: NCI one-dose screening, melanoma MALME-3M; type: cell-based, human; conditions: 10 μM
T-47D = test: NCI one-dose screening, breast cancer T-47D; type: cell-based, human; conditions: 10 μM
MOLT-4 = test: NCI one-dose screening, leukemia MOLT-4; type: cell-based, human; conditions: 10 μM
UO-31 = test: NCI one-dose screening, renal cancer UO-31; type: cell-based, human; conditions: 10 μM
[1] = tested on: PC-3 prostate cancer cell line; test: SRB assay cell viability, PC-3 prostate cancer cell line; type: cell-based, human; conditions: PC-3 prostate cancer cell line, Table II prints no unit, μM printed, read-out: SRB assay: 50% inhibition of cancer cell proliferation of sample concentration (IC50) of PC-3 prostate cancer cell line
SK-MEL-5 = test: NCI one-dose screening, melanoma SK-MEL-5; type: cell-based, human; conditions: 10 μM
OVCAR-4 = test: NCI one-dose screening, ovarian cancer OVCAR-4; type: cell-based, human; conditions: 10 μM
[2] = NCI one-dose screening, renal cancer A489; type: cell-based, human; conditions: 10 μM
786-O = test: NCI one-dose screening, renal cancer 786-O; type: cell-based, human; conditions: 10 μM
NCI-H322M = test: NCI one-dose screening, non-small cell lung cancer NCI-H322M; type: cell-based, human; conditions: 10 μM; Non-small cell lung cancer
OVCAR-3 = test: NCI one-dose screening, ovarian cancer OVCAR-3; type: cell-based, human; conditions: 10 μM
HCC-2998 = test: NCI one-dose screening, colon cancer HCC-2998; type: cell-based, human; conditions: 10 μM
TK-10 = test: NCI one-dose screening, renal cancer TK-10; type: cell-based, human; conditions: 10 μM
KM12 = test: NCI one-dose screening, colon cancer KM12; type: cell-based, human; conditions: 10 μM
human tumor cell lines = test: NCI one-dose screening, Mean / Delta / Range of growth percent over all tested cell lines; type: cell-based; conditions: 10 μM
HS 578-T = test: NCI one-dose screening, breast cancer HS 578-T; type: cell-based, human; conditions: 10 μM; Breast cancer
SR = test: NCI one-dose screening, leukemia SR; type: cell-based, human; conditions: 10 μM
PRMI-8226 cell line = test: NCI one-dose screening, leukemia PRMI-8226; type: cell-based, human; conditions: 10 μM
PC-3 = test: NCI one-dose screening, prostate cancer PC-3; type: cell-based, human; conditions: 10 μM
MDA-MB-468 = test: NCI one-dose screening, breast cancer MDA-MB-468; type: cell-based, human; conditions: 10 μM
HOP-92 = test: NCI one-dose screening, non-small cell lung cancer HOP-92; type: cell-based, human; conditions: 10 μM
OVCAR-8 = test: NCI one-dose screening, ovarian cancer OVCAR-8; type: cell-based, human; conditions: 10 μM
SF-268 = test: NCI one-dose screening, CNS cancer SF-268; type: cell-based, human; conditions: 10 μM
K562cell line = test: NCI one-dose screening, leukemia K562; type: cell-based, human; conditions: 10 μM
U251 = test: NCI one-dose screening, CNS cancer U251; type: cell-based, human; conditions: 10 μM
RXF, 393 = test: NCI one-dose screening, renal cancer RXF, 393; type: cell-based, human; conditions: 10 μM
HOP-62 = test: NCI one-dose screening, non-small cell lung cancer HOP-62; type: cell-based, human; conditions: 10 μM
SNB-19 = test: NCI one-dose screening, CNS cancer SNB-19; type: cell-based, human; conditions: 10 μM
HCT-15 = test: NCI one-dose screening, colon cancer HCT-15; type: cell-based, human; conditions: 10 μM
CAKI-1 = test: NCI one-dose screening, renal cancer CAKI-1; type: cell-based, human; conditions: 10 μM
MDA-MB-231/ATCC = test: NCI one-dose screening, breast cancer MDA-MB-231/ATCC; type: cell-based, human; conditions: 10 μM
COLO 205 = test: NCI one-dose screening, colon cancer COLO 205; type: cell-based, human; conditions: 10 μM
LOX IMVI = test: NCI one-dose screening, melanoma LOX IMVI; type: cell-based, human; conditions: 10 μM
SK-MEL-28 = test: NCI one-dose screening, melanoma SK-MEL-28; type: cell-based, human; conditions: 10 μM
HCT-116 = test: NCI one-dose screening, colon cancer HCT-116; type: cell-based, human; conditions: 10 μM
UACC-62 = test: NCI one-dose screening, melanoma UACC-62; type: cell-based, human; conditions: 10 μM
NCI-H460 = test: NCI one-dose screening, non-small cell lung cancer NCI-H460; type: cell-based, human; conditions: 10 μM
MCF7 = test: NCI one-dose screening, breast cancer MCF7; type: cell-based, human; conditions: 10 μM
DU145 = test: NCI one-dose screening, prostate cancer DU145; type: cell-based, human; conditions: 10 μM
M14 = test: NCI one-dose screening, melanoma M14; type: cell-based, human; conditions: 10 μM
BT-549 = test: NCI one-dose screening, breast cancer BT-549; type: cell-based, human; conditions: 10 μM
A549/ATCC = test: NCI one-dose screening, non-small cell lung cancer A549/ATCC; type: cell-based, human; conditions: 10 μM
SK-OV-3 = test: NCI one-dose screening, ovarian cancer SK-OV-3; type: cell-based, human; conditions: 10 μM
CCRF-CEM = test: NCI screening platform one-dose single concentration screening, leukemia CCRF-CEM; type: cell-based, human; conditions: 10 μM
UACC-257 = test: NCI one-dose screening, melanoma UACC-257; type: cell-based, human; conditions: 10 μM
NCI-H522 = test: NCI one-dose screening, non-small cell lung cancer NCI-H522; type: cell-based, human; conditions: 10 μM
SF-295 = test: NCI one-dose screening, CNS cancer SF-295; type: cell-based, human; conditions: 10 μM
NCI-H23 = test: NCI one-dose screening, non-small cell lung cancer NCI-H23; type: cell-based, human; conditions: 10 μM
HL-60, TB = test: NCI one-dose screening, leukemia HL-60, TB; type: cell-based, human; conditions: 10 μM
SK-MEL-2 = test: NCI one-dose screening, melanoma SK-MEL-2; type: cell-based, human; conditions: 10 μM
IGROV1 = test: NCI one-dose screening, ovarian cancer IGROV1; type: cell-based, human; conditions: 10 μM
SF-539 = test: NCI one-dose screening, CNS cancer SF-539; type: cell-based, human; conditions: 10 μM
SNB-75 = test: NCI one-dose screening, CNS cancer SNB-75; type: cell-based, human; conditions: 10 μM

O=C1c2ccccc2C(=O)c2c1cc(Cl)c1nsnc21 [C2, 4-Chloro-anthraquinone[2,1-c][1,2,5] thiadiazole-6,11-dione]
Growth Percent SN12C (SN12C): 71.92%
Growth Percent MALME-3M (MALME-3M): 97.09%
Growth Percent T-47D (T-47D): −54.59%
Growth Percent MOLT-4 (MOLT-4): −34.12%
Growth Percent UO-31 (UO-31): 80.15%
IC50 [1]: 13.5 µM
Growth Percent SK-MEL-5 (SK-MEL-5): 72.45%
Growth Percent OVCAR-4 (OVCAR-4): −75.03%
Growth Percent A498 [2]: 93.79%
Growth Percent 786-0 (786-O): 102.14%
Growth Percent NCI-H322M (NCI-H322M): 75.02%
Growth Percent OVCAR-3 (OVCAR-3): 49.88%
Growth Percent HCC-2998 (HCC-2998): 105.67%
Growth Percent TK-10 (TK-10): 134.06%
Growth Percent KM12 (KM12): 95.88%
Growth Percent Delta (human tumor cell lines; delta over all cell lines): 143.22%
Growth Percent Mean (human tumor cell lines; mean over all cell lines): 54.91%
Growth Percent Range (human tumor cell lines; range over all cell lines): 222.37%
Growth Percent HS 578T (HS 578-T): 72.54%
Growth Percent SR (SR): −23.86%
Growth Percent RPMI-8226 (PRMI-8226 cell line): 27.81%
Growth Percent PC-3 (PC-3): 23.54%
Growth Percent MDA-MB-468 (MDA-MB-468): −88.31%
Growth Percent HOP-92 (HOP-92): 75.8%
Growth Percent OVCAR-8 (OVCAR-8): −4.57%
Growth Percent SF-268 (SF-268): 37.03%
Growth Percent K562 (K562cell line): 2.44%
Growth Percent U251 (U251): 29.19%
Growth Percent RXF 393 (RXF, 393): 71.92%
Growth Percent HOP-62 (HOP-62): 82.19%
Growth Percent SNB-19 (SNB-19): 105.75%
Growth Percent HCT-15 (HCT-15): 96.8%
Growth Percent CAKI-1 (CAKI-1): 96.51%
Growth Percent MDA-MB-231/ATCC (MDA-MB-231/ATCC): −23.35%
Growth Percent COLO 205 (COLO 205): 99.08%
Growth Percent LOX IMVI (LOX IMVI): 10.23%
Growth Percent SK-MEL-28 (SK-MEL-28): 131.75%
Growth Percent HCT-116 (HCT-116): 48.15%
Growth Percent UACC-62 (UACC-62): 72.91%
Growth Percent NCI-H460 (NCI-H460): 108.2%
Growth Percent MCF7 (MCF7): 65.36%
Growth Percent DU145 (DU145): 96.95%
Growth Percent M14 (M14): 102.73%
Growth Percent BT-549 (BT-549): 101.5%
Growth Percent A549/ATCC (A549/ATCC): 103.21%
Growth Percent SK-OV-3 (SK-OV-3): 109.05%
Growth Percent CCRF-CEM (CCRF-CEM): −41.78%
Growth Percent UACC-257 (UACC-257): 76.09%
Growth Percent NCI-H522 (NCI-H522): 100.18%
Growth Percent SF-295 (SF-295): 109.08%
Growth Percent NCI-H23 (NCI-H23): 100.39%
Growth Percent HL-60(TB) (HL-60, TB): 1.87%
Growth Percent SK-MEL-2 (SK-MEL-2): 0.21%
Growth Percent IGROV1 (IGROV1): 52.47%
Growth Percent SF-539 (SF-539): 108.52%
Growth Percent SNB-75 (SNB-75): 85.25%
